Source: PubChem BioAssay (NCI)
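Cultured in 96-well plates, cells were exposed to test compound for 48 hours across five concentrations. At the GI50, growth is halved. TGI marks complete inhibition of growth.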

Legend:
Assay in all cases: inhibition of tumour cell growth, NCI panel, 48 h
786-0 renal = tested on: 786-0 renal
A498 renal = tested on: A498 renal
A549 NSCLC = tested on: A549 NSCLC
ACHN renal = tested on: ACHN renal
BT-549 breast = tested on: BT-549 breast
CAKI-1 renal = tested on: CAKI-1 renal
CCRF-CEM leukemia = tested on: CCRF-CEM leukemia
COLO 205 colon = tested on: COLO 205 colon
DU-145 prostate = tested on: DU-145 prostate
EKVX NSCLC = tested on: EKVX NSCLC
HCC-2998 colon = tested on: HCC-2998 colon
HCT-116 colon = tested on: HCT-116 colon
HCT-15 colon = tested on: HCT-15 colon
HL-60(TB) leukemia = tested on: HL-60(TB) leukemia
HOP-62 NSCLC = tested on: HOP-62 NSCLC
HOP-92 NSCLC = tested on: HOP-92 NSCLC
HS 578T breast = tested on: HS 578T breast
HT29 colon = tested on: HT29 colon
IGROV1 ovarian = tested on: IGROV1 ovarian
K-562 leukemia = tested on: K-562 leukemia
KM12 colon = tested on: KM12 colon
LOX IMVI melanoma = tested on: LOX IMVI melanoma
M14 melanoma = tested on: M14 melanoma
MALME-3M melanoma = tested on: MALME-3M melanoma
MCF7 breast = tested on: MCF7 breast
MDA-MB-231 breast = tested on: MDA-MB-231 breast
MDA-MB-435 = tested on: MDA-MB-435
MOLT-4 leukemia = tested on: MOLT-4 leukemia
NCI-H226 lung = tested on: NCI-H226 lung
NCI-H23 lung = tested on: NCI-H23 lung
NCI-H460 lung = tested on: NCI-H460 lung
NCI/ADR-RES ovarian = tested on: NCI/ADR-RES ovarian
OVCAR-3 ovarian = tested on: OVCAR-3 ovarian
OVCAR-4 ovarian = tested on: OVCAR-4 ovarian
OVCAR-5 ovarian = tested on: OVCAR-5 ovarian
OVCAR-8 ovarian = tested on: OVCAR-8 ovarian
PC-3 prostate = tested on: PC-3 prostate
RPMI-8226 leukemia = tested on: RPMI-8226 leukemia
RXF 393 renal = tested on: RXF 393 renal
SF-268 CNS = tested on: SF-268 CNS
SF-295 CNS = tested on: SF-295 CNS
SF-539 CNS = tested on: SF-539 CNS
SK-MEL-2 melanoma = tested on: SK-MEL-2 melanoma
SK-MEL-28 melanoma = tested on: SK-MEL-28 melanoma
SK-MEL-5 melanoma = tested on: SK-MEL-5 melanoma
SK-OV-3 ovarian = tested on: SK-OV-3 ovarian
SN12C renal = tested on: SN12C renal
SNB-19 CNS = tested on: SNB-19 CNS
SNB-75 CNS = tested on: SNB-75 CNS
SR leukemia = tested on: SR leukemia
SW-620 colon = tested on: SW-620 colon
T-47D breast = tested on: T-47D breast
TK-10 renal = tested on: TK-10 renal
U251 CNS = tested on: U251 CNS
UACC-257 melanoma = tested on: UACC-257 melanoma
UACC-62 melanoma = tested on: UACC-62 melanoma
UO-31 renal = tested on: UO-31 renal
MDA-N = tested on: MDA-N
NCI-H522 lung = tested on: NCI-H522 lung

Molecule `COc1cc(-c2nn(-c3ccc(NC(=O)c4ccc(Cl)c(C(F)(F)F)c4)cc3)cc2-c2ccncc2)ccc1Cl` has a GI50 (786-0 renal) of 1200 nM, a TGI (786-0 renal) of 2860 nM and a GI50 (A498 renal) of 2400 nM. It also gave a TGI (A498 renal) of 17.9 µM, a GI50 (A549 NSCLC) of 4.94 µM and a TGI (A549 NSCLC) of over 100 µM. It also gave a GI50 (ACHN renal) of 3.35 µM, a TGI (ACHN renal) of over 100 µM and a GI50 (BT-549 breast) of 3.08 µM. The TGI (BT-549 breast) was 32.5 µM, the GI50 (CAKI-1 renal) was 1710 nM and the TGI (CAKI-1 renal) was 7.29 µM. The GI50 (CCRF-CEM leukemia) was 2500 nM, the TGI (CCRF-CEM leukemia) was over 100 µM and the GI50 (COLO 205 colon) was 2050 nM. It also gave a TGI (COLO 205 colon) of 4.37 µM, a GI50 (DU-145 prostate) of 4.59 µM and a TGI (DU-145 prostate) of over 100 µM. The GI50 (EKVX NSCLC) was 2180 nM, the TGI (EKVX NSCLC) was over 65.1 µM and the GI50 (HCC-2998 colon) was 3.22 µM. For the same molecule, the TGI (HCC-2998 colon) was over 100 µM, the GI50 (HCT-116 colon) was 2810 nM and the TGI (HCT-116 colon) was over 58.2 µM. It also gave a GI50 (HCT-15 colon) of 1420 nM, a TGI (HCT-15 colon) of 4.21 µM and a GI50 (HL-60(TB) leukemia) of 3.62 µM. The TGI (HL-60(TB) leukemia) was over 57.3 µM, the GI50 (HOP-62 NSCLC) was 2070 nM and the TGI (HOP-62 NSCLC) was 7.07 µM. For the same molecule, the GI50 (HOP-92 NSCLC) was 2580 nM, the TGI (HOP-92 NSCLC) was 8.81 µM and the GI50 (HS 578T breast) was 1230 nM. It also gave a TGI (HS 578T breast) of 4.03 µM, a GI50 (HT29 colon) of 1800 nM and a TGI (HT29 colon) of 4.25 µM. It also gave a GI50 (IGROV1 ovarian) of 3.96 µM, a TGI (IGROV1 ovarian) of over 100 µM and a GI50 (K-562 leukemia) of 1810 nM. The TGI (K-562 leukemia) was 5.67 µM, the GI50 (KM12 colon) was 1500 nM and the TGI (KM12 colon) was 4.84 µM. The GI50 (LOX IMVI melanoma) was 1550 nM, the TGI (LOX IMVI melanoma) was 3.88 µM and the GI50 (M14 melanoma) was 2510 nM. For the same molecule, the TGI (M14 melanoma) was 8.26 µM, the GI50 (MALME-3M melanoma) was 1460 nM and the TGI (MALME-3M melanoma) was 5.05 µM. The GI50 (MCF7 breast) was 3.05 µM, the TGI (MCF7 breast) was over 100 µM and the GI50 (MDA-MB-231 breast) was 1600 nM. For the same molecule, the TGI (MDA-MB-231 breast) was 6.09 µM, the GI50 (MDA-MB-435) was 2410 nM and the TGI (MDA-MB-435) was over 100 µM. The GI50 (MOLT-4 leukemia) was 2630 nM, the TGI (MOLT-4 leukemia) was 8.06 µM and the GI50 (NCI-H226 lung) was 5.31 µM. For the same molecule, the TGI (NCI-H226 lung) was over 100 µM, the GI50 (NCI-H23 lung) was 3.06 µM and the TGI (NCI-H23 lung) was over 100 µM. The GI50 (NCI-H460 lung) was 3.43 µM, the TGI (NCI-H460 lung) was over 100 µM and the GI50 (NCI/ADR-RES ovarian) was 3.63 µM. The TGI (NCI/ADR-RES ovarian) was over 100 µM, the GI50 (OVCAR-3 ovarian) was 2980 nM and the TGI (OVCAR-3 ovarian) was over 30.9 µM. The GI50 (OVCAR-4 ovarian) was 5.05 µM, the TGI (OVCAR-4 ovarian) was over 100 µM and the GI50 (OVCAR-5 ovarian) was 4.58 µM. It also gave a TGI (OVCAR-5 ovarian) of over 39.6 µM, a GI50 (OVCAR-8 ovarian) of 5.43 µM and a TGI (OVCAR-8 ovarian) of over 100 µM. It also gave a GI50 (PC-3 prostate) of 3.04 µM, a TGI (PC-3 prostate) of over 100 µM and a GI50 (RPMI-8226 leukemia) of 1790 nM. It also gave a TGI (RPMI-8226 leukemia) of 6.47 µM, a GI50 (RXF 393 renal) of 461 nM and a TGI (RXF 393 renal) of 1610 nM. The GI50 (SF-268 CNS) was 4.03 µM, the TGI (SF-268 CNS) was over 100 µM and the GI50 (SF-295 CNS) was 255 nM. For the same molecule, the TGI (SF-295 CNS) was 948 nM, the GI50 (SF-539 CNS) was 1830 nM and the TGI (SF-539 CNS) was 8.6 µM. It also gave a GI50 (SK-MEL-2 melanoma) of 3.12 µM, a TGI (SK-MEL-2 melanoma) of over 28.5 µM and a GI50 (SK-MEL-28 melanoma) of 2620 nM. The TGI (SK-MEL-28 melanoma) was over 61.9 µM, the GI50 (SK-MEL-5 melanoma) was 1660 nM and the TGI (SK-MEL-5 melanoma) was 3.15 µM. It also gave a GI50 (SK-OV-3 ovarian) of over 27.1 µM, a TGI (SK-OV-3 ovarian) of over 100 µM and a GI50 (SN12C renal) of 4.64 µM. For the same molecule, the TGI (SN12C renal) was over 100 µM, the GI50 (SNB-19 CNS) was 4.55 µM and the TGI (SNB-19 CNS) was over 100 µM. For the same molecule, the GI50 (SNB-75 CNS) was 1230 nM, the TGI (SNB-75 CNS) was 6.83 µM and the GI50 (SR leukemia) was 3.2 µM. The TGI (SR leukemia) was over 37.8 µM, the GI50 (SW-620 colon) was 3.31 µM and the TGI (SW-620 colon) was over 100 µM. The GI50 (T-47D breast) was 2980 nM, the TGI (T-47D breast) was over 100 µM and the GI50 (TK-10 renal) was 4.56 µM. It also gave a TGI (TK-10 renal) of over 100 µM, a GI50 (U251 CNS) of 2080 nM and a TGI (U251 CNS) of 56.7 µM. The GI50 (UACC-257 melanoma) was 6.91 µM, the TGI (UACC-257 melanoma) was over 100 µM and the GI50 (UACC-62 melanoma) was 2200 nM. It also gave a TGI (UACC-62 melanoma) of 5.44 µM, a GI50 (UO-31 renal) of 1650 nM and a TGI (UO-31 renal) of 5.46 µM.
For `O=C(O)c1cccc2c1/C(=N/Nc1ccccc1)CC2`, the TGI (786-0 renal) was over 100000 nM, the TGI (A498 renal) was over 100 µM and the TGI (ACHN renal) was over 100 µM. For the same molecule, the TGI (CAKI-1 renal) was over 100 µM, the TGI (CCRF-CEM leukemia) was over 100 µM and the TGI (DU-145 prostate) was over 100 µM. The TGI (EKVX NSCLC) was over 100 µM, the TGI (HCC-2998 colon) was over 100 µM and the TGI (HCT-116 colon) was over 100 µM. It also gave a TGI (HCT-15 colon) of over 100 µM, a TGI (HOP-62 NSCLC) of over 100 µM and a TGI (HOP-92 NSCLC) of over 100 µM. The TGI (HS 578T breast) was over 100 µM, the TGI (HT29 colon) was over 100 µM and the TGI (IGROV1 ovarian) was over 100 µM. The TGI (K-562 leukemia) was over 100 µM, the TGI (KM12 colon) was over 100 µM and the TGI (LOX IMVI melanoma) was over 100 µM. For the same molecule, the TGI (M14 melanoma) was over 100 µM, the TGI (MCF7 breast) was over 100 µM and the TGI (MDA-MB-231 breast) was over 100 µM. It also gave a TGI (MDA-MB-435) of over 100 µM, a TGI (MDA-N) of over 100 µM and a TGI (MOLT-4 leukemia) of over 100 µM. It also gave a TGI (NCI-H226 lung) of 98.9 µM, a TGI (NCI-H23 lung) of over 100 µM and a TGI (NCI-H460 lung) of over 100 µM. The TGI (NCI-H522 lung) was over 100 µM, the TGI (NCI/ADR-RES ovarian) was over 100 µM and the TGI (OVCAR-3 ovarian) was over 100 µM. The TGI (OVCAR-4 ovarian) was over 100 µM, the TGI (OVCAR-5 ovarian) was over 100 µM and the TGI (OVCAR-8 ovarian) was over 100 µM. The TGI (PC-3 prostate) was over 100 µM, the TGI (RPMI-8226 leukemia) was over 100 µM and the TGI (RXF 393 renal) was over 100000 nM. It also gave a TGI (SF-268 CNS) of over 100 µM, a TGI (SF-295 CNS) of over 100000 nM and a TGI (SF-539 CNS) of over 100 µM. It also gave a TGI (SK-MEL-2 melanoma) of over 100 µM, a TGI (SK-MEL-28 melanoma) of over 100 µM and a TGI (SK-MEL-5 melanoma) of over 100 µM. The TGI (SK-OV-3 ovarian) was over 100 µM, the TGI (SR leukemia) was over 100 µM and the TGI (SW-620 colon) was over 100 µM. The TGI (T-47D breast) was over 100 µM, the TGI (TK-10 renal) was over 100 µM and the TGI (U251 CNS) was over 100 µM. The TGI (UACC-257 melanoma) was over 100 µM and the TGI (UO-31 renal) was over 100 µM.
